Experimental data as given in PMC10874388, “Cyclic peptides discriminate BCL-2 and its clinical mutants from BCL-XL by engaging a single-residue discrepancy” (Nature Communications, 2024).
Several values for one entry are separate records, joined by “and”; a condition that tells them apart may be missing. Equal entries are not always repeated.

Tests used:
Type in all cases: cell-based
RS4:11 cells = assay: Cell viability assay (CellTiter-Glo), RS4:11; details: for raw luminescence reading / inhibition rate: RS4:11; for raw luminescence reading: listed as ABT199
Summary of the method: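 Compounds added in serum-free medium for 4 h (RS4:11: 6 h), then FBS brought to 10% and incubation continued to 24 h or 48 h total at 37 °C, 5% CO2. Viability by CellTiter-Glo 2.0 luminescence; IC50 calculated.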

Jurkat cells = assay: Mitochondrial membrane potential (JC-1), flow cytometry and fluorescence microscopy; details: Jurkat
Experimental: For the mitochondrial membrane potential (ΔΨm) analysis, the mitochondrial membrane potential assay kit with JC-1 dye (Beyotime, C2006) was used according to the manufacturer’s protocol. […] The value of ΔΨm was expressed as the ratio of red fluorescence intensity over green fluorescence intensity. After treated with JC-1, fluorescence intensity of Jurkat cells was tested by flow cytometry (BD FACSAria Fusion) and fluorescence microscopy (NIKON Ti-E), respectively. All experiments were performed in triplicate. Statistical analysis was performed using software GraphPad Prism 7.0.

El4 cells = assay: Cell viability assay (CellTiter-Glo), El4; details: Mus musculus, 48 h treatment, NO = no inhibition detected
Experimental: (§1) The cell lines Jurkat (TIB-152), El4 (TIB-39), Daudi (ccl-213), RS4:11 (crl-1873), A549 (ccl-185), HepG2 (hb-8065) and PANC-1 (crl-1469) were purchased from ATCC (American Type Culture Collection), and MGC-803 (C6582) was purchased from Beyotime (https://www.beyotime.com/product/C6582.htm). […] Daudi and RS4:11 cells were cultured in RPMI-1640 medium (HyClone, SH30809.01) and 10% FBS (Gibco, 10099-141), whereas HepG2, MGC-803 and PANC-1 cells were cultured in MDEM (HyClone, SH30243.01). Cells were maintained at 37 °C under a humidified, 5% (v/v) CO2-containing atmosphere.
(§2) Cell viability was measured using CellTiter-Glo® 2.0 Reagent (Promega, G9242). […] After different inhibitors were added into serum-free medium and cultured for 4 h (RS4:11 for 6 h), FBS were supplemented to 10% and then incubated totally for 24 h or 48 h. Finally, the IC50 values were calculated based on measurements using a microplate reader (Thermo, Varioskan LUX). Statistical analysis was performed using software GraphPad Prism 7.0.

PANC-1 cells = assay: Cell viability assay (CellTiter-Glo), PANC-1; details: PNAC-1; for inhibition rate: fraction; for inhibition rate / raw viability reading: replicates
Experimental: as §1, §2
(§3) Supplementary Figure 10 Functional mechanism of CPs. a. IC50 values of venetoclax against A549, MGC-803 and PANC-1 cells, measured after 48 h treatment by a CellTiter-Glo assay and calculated using Prism 7.0 by a nonlinear-fit method. Data are presented as mean ± s.d.; n= 6 biological replicates. b. […]
(§4) Glo assay. Each data point represents the mean ± s.d. for 6 biological replicates.
(§5) Supplementary Figure 11 IC50 values of different inhibitors against different cell lines. a-d. Viability of A549 (a), HepG2 (b), MGC-803 (c) and PANC-1 (d) cells treated with various concentrations of ABT-199 (venetoclax), and measured after 48 h by a CellTiter-Glo assay. e, f. Viability of Jurkat cells (e) and Daudi cells (f) treated with […]
(§6) after 48 h by a CellTiter-Glo assay. Each data point represents the mean ± s.d. for 6 biological replicates.
(§7) (1 picture or pasted object on this page, not shown here)

MGC-803 cells = assay: Cell viability assay (CellTiter-Glo), MGC-803; details: for inhibition rate: fraction; for inhibition rate / raw viability reading: replicates
Experimental: as §1, §2, §3, §4, §5, §6, §7

CC1(C)CCC(CN2CCN(c3ccc(C(=O)NS(=O)(=O)c4ccc(NCC5CCOCC5)c([N+](=O)[O-])c4)c(Oc4cnc5[nH]ccc5c4)c3)CC2)=C(c2ccc(Cl)cc2)C1 [venetoclax]
inhibition at 0.000390625 µM (RS4:11 cells; Homo sapiens, RS4-11, RS4:11, 0.390625 nM, single wells, read-out: inhibition rate): 27%
inhibition at 0.00078125 µM (RS4:11 cells; Homo sapiens, RS4-11, RS4:11, 0.78125 nM, single wells, read-out: inhibition rate): 67%
inhibition at 0.0015625 µM (RS4:11 cells; Homo sapiens, RS4-11, RS4:11, 1.5625 nM, single wells, read-out: inhibition rate): 95%
inhibition at 0.003125 µM (RS4:11 cells; Homo sapiens, RS4-11, RS4:11, 3.125 nM, single wells, read-out: inhibition rate): 98%
inhibition at 0.00625 µM (RS4:11 cells; Homo sapiens, RS4-11, RS4:11, 6.25 nM, single wells, read-out: inhibition rate): 100%
inhibition at 0.0125 µM (RS4:11 cells; Homo sapiens, RS4-11, RS4:11, 12.5 nM, single wells, read-out: inhibition rate): 100%
inhibition at 0.025 µM (RS4:11 cells; Homo sapiens, RS4-11, RS4:11, 25 nM, single wells, read-out: inhibition rate): 100%
inhibition at 0.05 µM (RS4:11 cells; Homo sapiens, RS4-11, RS4:11, 50 nM, single wells, read-out: inhibition rate): 100%
inhibition at 0.1 µM (RS4:11 cells; Homo sapiens, RS4-11, RS4:11, 100 nM, single wells, read-out: inhibition rate): 100%
inhibition at 0.2 µM (RS4:11 cells; Homo sapiens, RS4-11, RS4:11, 200 nM, single wells, read-out: inhibition rate): 100%
IC50 (RS4:11 cells; Homo sapiens, RS4-11, 48 h treatment, CellTiter-Glo, small-molecule inhibitors, cells marked (nM)): 0.5 ± 0.1 nM
raw luminescence reading (RS4:11 cells; 0.012207 nM, single wells): 473100 and 440900 and 421900 and 464800 and 440500 and 404600
raw luminescence reading (RS4:11 cells; 0.0244141 nM, single wells): 468000 and 467900 and 427500 and 463600 and 451400 and 411500
raw luminescence reading (RS4:11 cells; 0.0488281 nM, single wells): 464300 and 463300 and 420200 and 448100 and 441000 and 405800
raw luminescence reading (RS4:11 cells; 0.0976562 nM, single wells): 446400 and 453400 and 406000 and 426100 and 420400 and 382600
raw luminescence reading (RS4:11 cells; 0.195312 nM, single wells): 418900 and 420900 and 384800 and 390800 and 394900 and 350200
raw luminescence reading (RS4:11 cells; 0.390625 nM, single wells): 317400 and 330800 and 297800 and 297300 and 296900 and 256100
inhibition rate (RS4:11 cells; 0.390625 nM, single wells, listed as ABT199, 0.000390625 µM): 24% and 32% and 41%
raw luminescence reading (RS4:11 cells; 0.78125 nM, single wells): 141300 and 149000 and 125700 and 134100 and 136000 and 117900
inhibition rate (RS4:11 cells; 0.78125 nM, single wells, listed as ABT199, 0.00078125 µM): 66% and 71% and 69% and 73%
raw luminescence reading (RS4:11 cells; 1.5625 nM, single wells): 23070 and 25650 and 25890 and 29130 and 27640 and 29210
inhibition rate (RS4:11 cells; 1.5625 nM, single wells, listed as ABT199, 0.0015625 µM): 94% and 93%
raw luminescence reading (RS4:11 cells; 3.125 nM, single wells): 9731 and 10360 and 11130 and 12480 and 11890 and 12850
inhibition rate (RS4:11 cells; 3.125 nM, single wells, listed as ABT199, 0.003125 µM): 97%
raw luminescence reading (RS4:11 cells; 6.25 nM, single wells): 514.1 and 705.1 and 803.0 and 736.8 and 691.7 and 772.7
raw luminescence reading (RS4:11 cells; 12.5 nM, single wells): 355.5 and 246.5 and 256.3 and 381.9 and 264.2 and 272.2
raw luminescence reading (RS4:11 cells; 25 nM, single wells): 183.0 and 151.3 and 145.9 and 222.1 and 185.6 and 197.7
raw luminescence reading (RS4:11 cells; 50 nM, single wells): 222.3 and 165.6 and 152.2 and 216.6 and 173.6 and 195.6
ΔΨm (ratio of red over green fluorescence, Q1/Q3) (Jurkat cells; 4 h treatment, JC-1, flow cytometry, n = 3): 0.1
Relative ΔΨm by JC-1 fluorescence staining (microscopy) (Jurkat cells; 24 h treatment (Supplementary Fig. 13)): red fluorescence almost disappeared
IC50 (El4 cells): 1700 ± 200 nM
average (raw viability reading) (PANC-1 cells; ABT199 0.625 uM): 745567
inhibition rate (PANC-1 cells; ABT199 0.625 uM): -0.00675 and 0.06232 and 0.04686 and 0.01357 and 0.002949
raw viability reading (PANC-1 cells; ABT199 0.625 uM): 768100 and 715400 and 727200 and 752600 and 760700 and 749400
average (raw viability reading) (PANC-1 cells; ABT199 1.25 uM): 742283
inhibition rate (PANC-1 cells; ABT199 1.25 uM): 0.02549 and 0.03519 and 0.03296 and 0.02484 and -0.003211 and 0.04725
raw viability reading (PANC-1 cells; ABT199 1.25 uM): 743500 and 736100 and 737800 and 744000 and 765400 and 726900
average (raw viability reading) (PANC-1 cells; ABT199 2.5 uM): 777083
inhibition rate (PANC-1 cells; ABT199 2.5 uM): -0.04175 and 0.01278 and 0.00793 and -0.01999 and -0.04882 and -0.0213
raw viability reading (PANC-1 cells; ABT199 2.5 uM): 794800 and 753200 and 756900 and 778200 and 800200 and 779200
average (raw viability reading) (PANC-1 cells; ABT199 5 uM): 562150
inhibition rate (PANC-1 cells; ABT199 5 uM): 0.3097 and 0.2596 and 0.2661 and 0.2453 and 0.2389
raw viability reading (PANC-1 cells; ABT199 5 uM): 526700 and 564900 and 559900 and 575800 and 580700
average (raw viability reading) (PANC-1 cells; ABT199 10 uM): 446683
inhibition rate (PANC-1 cells; ABT199 10 uM): 0.4023 and 0.4323 and 0.4298 and 0.4149 and 0.4042 and 0.4036
raw viability reading (PANC-1 cells; ABT199 10 uM): 456000 and 433100 and 435000 and 446400 and 454600 and 455000
average (raw viability reading) (PANC-1 cells; ABT199 20 uM): 384133
inhibition rate (PANC-1 cells; ABT199 20 uM): 0.5271 and 0.5025 and 0.4945 and 0.4865 and 0.4715 and 0.4971
raw viability reading (PANC-1 cells; ABT199 20 uM): 360800 and 379600 and 385700 and 391800 and 403200 and 383700
average (raw viability reading) (MGC-803 cells; ABT199 0.3125 uM): 557867
inhibition rate (MGC-803 cells; ABT199 0.3125 uM): 0.2027 and 0.1767 and 0.1757 and 0.1522 and 0.1169 and 0.1408
raw viability reading (MGC-803 cells; ABT199 0.3125 uM): 548000 and 563600 and 587100 and 571200 and 530000 and 547300
average (raw viability reading) (MGC-803 cells; ABT199 0.625 uM): 500400
inhibition rate (MGC-803 cells; ABT199 0.625 uM): 0.2793 and 0.2709 and 0.2616 and 0.2533 and 0.2176 and 0.2009
raw viability reading (MGC-803 cells; ABT199 0.625 uM): 490900 and 496400 and 520100 and 531200 and 479100 and 484700
average (raw viability reading) (MGC-803 cells; ABT199 1.25 uM): 506350
inhibition rate (MGC-803 cells; ABT199 1.25 uM): 0.2765 and 0.2507 and 0.2473 and 0.2351 and 0.2002 and 0.2202
raw viability reading (MGC-803 cells; ABT199 1.25 uM): 500400 and 508500 and 531700 and 518400 and 481000 and 498100
average (raw viability reading) (MGC-803 cells; ABT199 2.5 uM): 356233
inhibition rate (MGC-803 cells; ABT199 2.5 uM): 0.4666 and 0.4612 and 0.464 and 0.4702 and 0.4562
raw viability reading (MGC-803 cells; ABT199 2.5 uM): 356300 and 352200 and 361500 and 354600 and 358200
average (raw viability reading) (MGC-803 cells; ABT199 5 uM): 295000
inhibition rate (MGC-803 cells; ABT199 5 uM): 0.6033 and 0.5602 and 0.5626 and 0.5469 and 0.5313 and 0.5332
raw viability reading (MGC-803 cells; ABT199 5 uM): 290800 and 301200 and 311600 and 310300 and 263700 and 292400
average (raw viability reading) (MGC-803 cells; ABT199 10 uM): 171300
inhibition rate (MGC-803 cells; ABT199 10 uM): 0.7623 and 0.7504 and 0.748 and 0.7419 and 0.7262 and 0.725
raw viability reading (MGC-803 cells; ABT199 10 uM): 167500 and 171600 and 182000 and 182800 and 158000 and 165900
average (raw viability reading) (MGC-803 cells; ABT199 20 uM): 77771.7
inhibition rate (MGC-803 cells; ABT199 20 uM): 0.8931 and 0.8865 and 0.8872 and 0.8828 and 0.8769 and 0.8715
raw viability reading (MGC-803 cells; ABT199 20 uM): 75000 and 77910 and 81820 and 85400 and 71050 and 75450
